Test results from US20060286625A1, “Rapid enrichment for Listeria” (Kraft Foods Holdings, Inc., priority 2005, published 2006).

System: environmental isolates
Assay: Effect of Polymyxin B, Acriflavine HCl and Ceftazidime on environmental isolates
Type: cell-based
Details: used together in the Selective medium
Description: Nineteen non-Listeria organisms isolated from environmental sponges from meat and dairy manufacturing facilities were inoculated separately into Tryptic Soy broth (TSB, Difco) and incubated for 24 h at 30° C. The isolates were screened for growth in Selective and Non-Selective media by monitoring absorbance via a spectrophotometer. 900 μl of test media and either 100 μl of culture or Butterfield's Buffer (International BioProducts) were added to a cuvette and incubated at 30° C. Absorbance readings were taken at 660 nm on a spectrophotometer (Shimadzu UV160U) at To, 2 h, 4 h, and 6 h and compared to the corresponding blank cuvette with buffer. Growth was scored by absorbance readings.
The Non-Selective medium consisted of Universal Preenrichment Broth (UPB, Difco) with 0.4% Yeast Extract (YE, Difco). The Selective medium consisted of Universal Preenrichment Broth (UPB, Difco) with 0.4% Yeast Extract (YE, Difco), 0.001% Polymymin B, 0.0005% Acriflavine HCl, and 0.002% Ceftazidime.
Several environmental organisms screened via spectrophotometer were selected to test in mixed culture with Listeria. Environmental isolates were inoculated separately into TSB and incubated for 24 h at 30° C. The growth level was determined by serial dilutions plated on Tryptic Soy agar (TSA, Difco) and incubated at 30° C. for 24 h. Based on the cell counts, the culture was diluted in Butterfield's Buffer and a volume of the diluted culture targeting an initial cell count of 1000 CFU/mL was inoculated into the test media.
30 mL of Non-Selective or Selective medium was added to 10 ml of Butterfield's Buffer to simulate the addition of media to environment sponge. A Non-Selective and Selective medium was inoculated with Listeria culture alone, environmental isolate alone, and Listeria and environment isolate combined. The media were incubated in a water bath at 30° C. Serial dilutions of inoculated media were collected at To and 8 h and plated on Oxford Media Base and a differential media particular to the environmental isolate being tested (see Table 2). […]

Row | Compound | Effectiveness as selective agents against environmental isolates (in words)
1 | Polymyxin B | effective selective agents against many environmental isolates
2 | Acriflavine HCl | effective selective agents against many environmental isolates
3 | CC(C)(O/N=C(\C(=O)N[C@@H]1C(=O)N2C(C(=O)[O-])=C(C[n+]3ccccc3)CS[C@H]12)c1csc(N)n1)C(=O)O [Ceftazidime] | effective selective agents against many environmental isolates
